Measured values as given in patent US20250066290A1, “DHODH INHIBITORS CONTAINING A CARBOXYLIC ACID BIOISOSTERE” (IMMUNIC AG, priority 2021, published 2025).
In brackets after ≈: the same amount, converted by molar mass. Where two headings read alike, the source gives them in different places.

Key:
[1] = target: human URAT1 uptake transporter (Homo sapiens (Human), UniProt Q96S37); assay: Human URAT1 uptake transporter assay (MDCKII-URAT1-LV, SOLVO); type: cell-based; conditions: 10 μM compound, 20 μM uric acid probe substrate
Protocol: In the human URAT1 uptake transporter assay (host cell line: MDCKII), the accumulation of the probe substrate in the presence of a DHODH inhibitor (at a concentration of 10 μM) into cells was measured. The assay was executed at SOLVO with catalogue number MDCKII-URAT1-LV. 20 μM uric acid served as probe substrate. Reference inhibitor was benzbromarone at a concentration of 300 μM, which served as internal control.

Caco-2 monolayer = assay: A-B and B-A permeability (Caco-2, pH 7.4/7.4); type: in vitro ADME, human; conditions: Caco-2, pH 7.4
Source text: (§1) The Caco-2 cell line is a human colon adeno-carcinoma cell line that differentiates in culture and resembles the epithelial lining of the human small intestine. […]

[2] = Partition coefficient log D (n-octanol/PBS at pH 7.4); type: physicochemical
Protocol: The total amount of compound was determined as the peak area of the principal peak in a calibration standard (100 μM) containing organic solvent (MeOH/water, 60/40 v/v). The amount of compound in buffer was determined as the combined, volume-corrected and weighted areas of the corresponding peaks in the aqueous phases of three organic-aqueous samples of different composition. An automated weighting system was used to ensure the preferred use of raw data from those samples with well quantifiable peak signals. The amount of compound in organic was calculated by subtraction.
Subsequently, the partition coefficient (log D, n-octanol/PBS at pH 7.4) was calculated as the Log10 of the amount of compound in the organic phase divided by the amount of compound in the aqueous phase (Eurofins Discovery Services Item #417).

[3] = pH 7.4
[4] = target: N-terminally truncated recombinant hDHODH enzyme (Homo sapiens, UniProt Q02127); assay: biochemical; type: biochemical
Protocol: Briefly, the hDHODH concentration was adjusted in a way that an average slope of approximately 0.2 AU/min served as the positive control (e.g. without inhibitor). The standard assay mixture contained 60 μM 2,6-dichloroindophenol, 50 μM decylubiquinone and 100 μM dihydroorotate. The hDHODH enzyme with or without at least six different concentrations of the compounds was added and measurements were performed in 50 mM TrisHCl, 150 mM KCl and 0.1% Triton X-100 at pH 8.0 and at 30° C. The reaction was started by adding dihydroorotate and measuring the absorption at 600 nm for 2 min. For the determination of the IC50 values, each data point was recorded in triplicate. […].

SARS-CoV-2 = SARS-CoV-2 viral replication (YFP) assay; type: cell-based; conditions: Severe acute respiratory syndrome coronavirus 2, read-out: EC50 range
SARS-CoV-2 d6-YFP = assay: Combinatorial drug assessment with EIDD-1931 by viral replication inhibition assay; type: cell-based
[5] = Mouse pharmacokinetics, male and female, cassette dosing; type: in vivo, mice (C57BL/6J); conditions: for AUC / Cmax / half-life: C57BL/6J, mouse, in vivo; for AUC: 0 to 24 h; for Cmax: 5 mg/kg oral, 1 mg/kg intravenous cassette; for F: bioavailability
Protocol: The pharmacokinetics of the compounds of the present invention was evaluated in 3 male and 3 female mice (C57BL/6J, 8 week old) after oral or intravenous cassette dosing to assess the oral bioavailability. Dose was 5 mg/kg (oral) and 1 mg/kg (intravenous), application volume was 5 mL/kg (oral) and 0.5 mL/kg (intravenous), vehicle was 5% solutol, 95% NaCl solution (at 0.9% saline concentration) for oral and 5% solutol, 5% ethanol, 90% NaCl solution (at 0.9% saline concentration) for intravenous. At each designated time point (0.5, 1, 2, 4, 8 and 24 h after dosing), 20 μL whole blood were collected from the tail vein into Li-heparin tubes, frozen on dry ice within 1-2 minutes of sampling and stored at −20° C. until processed for LC-MS analysis.

[6] = Kinetic aqueous solubility in PBS at pH 7.4; conditions: pH 7.4, aqueous buffer, kinetic from dmso stock
[7] = Metabolic stability in rat liver microsomes; conditions: SD
Source text: (§2) The metabolism was monitored by HPLC-MS/MS. Verapamil served as positive control.

[8] = Metabolic stability in human liver microsomes
Source text: as §2

[9] = A-B and B-A permeability (Caco-2, pH 7.4/7.4); type: in vitro ADME, human; conditions: human; for recovery at 10 μM: Caco-2, Caco-2, 10 μM
Source text: as §1

human rhinovirus HRV-14 = assay: Antiviral activity on human rhinovirus; type: cell-based; conditions: Rhinovirus B, HRV14
[10] = Cytotoxicity in human rhinovirus test
[11] = high vidofludimus doses; cited from earlier work
[12] = human DHODH assay, read-out: IC50 range
[13] = n-octanol/PBS at pH 7.4, read-out: logD

Chain of human URAT1 uptake transporter (Q96S37 whole entry): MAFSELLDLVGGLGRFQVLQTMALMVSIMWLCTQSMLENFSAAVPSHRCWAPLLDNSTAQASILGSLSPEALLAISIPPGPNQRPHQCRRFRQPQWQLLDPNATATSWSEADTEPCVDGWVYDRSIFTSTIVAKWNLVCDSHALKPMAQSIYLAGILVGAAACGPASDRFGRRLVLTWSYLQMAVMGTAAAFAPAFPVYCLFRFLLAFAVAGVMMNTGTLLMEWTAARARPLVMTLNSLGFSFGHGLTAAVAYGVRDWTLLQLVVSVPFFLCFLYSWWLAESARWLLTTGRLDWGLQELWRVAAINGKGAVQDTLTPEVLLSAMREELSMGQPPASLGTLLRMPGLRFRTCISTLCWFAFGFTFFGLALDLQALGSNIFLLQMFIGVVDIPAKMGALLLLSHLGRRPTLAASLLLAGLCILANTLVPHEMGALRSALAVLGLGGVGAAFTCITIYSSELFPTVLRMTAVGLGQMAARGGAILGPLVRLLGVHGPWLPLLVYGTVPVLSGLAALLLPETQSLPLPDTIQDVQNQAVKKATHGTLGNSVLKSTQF
Chain of N-terminally truncated recombinant hDHODH enzyme (Q02127 whole entry, looked up, the tested form may be a part): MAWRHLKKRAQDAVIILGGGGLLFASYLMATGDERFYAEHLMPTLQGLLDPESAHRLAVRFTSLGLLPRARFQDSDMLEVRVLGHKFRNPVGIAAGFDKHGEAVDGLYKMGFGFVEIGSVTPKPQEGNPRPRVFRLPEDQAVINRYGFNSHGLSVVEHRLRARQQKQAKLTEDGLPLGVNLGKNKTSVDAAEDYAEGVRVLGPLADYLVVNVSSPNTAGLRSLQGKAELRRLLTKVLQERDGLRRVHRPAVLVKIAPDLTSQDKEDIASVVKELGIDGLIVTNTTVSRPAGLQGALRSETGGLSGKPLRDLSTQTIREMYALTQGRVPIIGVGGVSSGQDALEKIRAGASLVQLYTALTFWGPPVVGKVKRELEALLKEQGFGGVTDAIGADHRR

SMILES	human URAT1 uptake transporter stimulation @ 10 μM [1] [%]	IC50 [4, 12] [nM]	EC50 (SARS-CoV-2) [nM]	solubility [6] [µM]	microsomal CLint ([7]; female) [µL/min/mg]	microsomal CLint ([7]; male) [µL/min/mg]	microsomal CLint ([8]; female) [µL/min/mg]	microsomal CLint ([8]; male) [µL/min/mg]	also measured
[2H]C([2H])([2H])Oc1cccc(-c2cc(F)c(NC(=O)C3=C(C(=O)NOC)CCC3)c(F)c2)c1 [Comparative Example C1, reference compound]	173								A-B permeability (Caco-2 monolayer): 0.068 ×10⁻⁶ cm/s; B-A permeability (Caco-2 monolayer): 0.88 ×10⁻⁶ cm/s; logD ([2]; pH 7.4): 1.0; solubility [3]: 220 µM (≈ 89.2 µg/mL)
CS(=O)(=O)NC(=O)C1=C(C(=O)Nc2c(F)c(F)c(-c3cccc(OC(F)(F)F)c3)c(F)c2F)CCC1 [Example 1, N^1-(Methylsulfonyl)-N^2-(2,3,5,6-tetrafluoro-3′-(trifluoromethoxy)-[1,1′-biphenyl]-4-yl)cyclopent-1-ene-1,2-dicarboxamide]	28	< 100	10000 to 25000	237 (≈ 128 µg/mL)					antiviral effect in combination with EIDD-1931 (SARS-CoV-2 d6-YFP): synergistic antiviral effect; antiviral effect in combination with EIDD-1931 (SARS-CoV-2 d6-YFP; listed as Compound 1): synergistic antiviral effects; AUC ([5]; female mice): 7350 ng·h/mL; Cmax ([5]; female mice): 1320 ng/mL; AUC ([5]; male mice): 3200 ng·h/mL; Cmax ([5]; male mice): 754 ng/mL; F ([5]; female mice): ♀ 217%; half-life ([5]; female): 2.8 h; F ([5]; male mice): ♂ 49%; half-life ([5]; male): 2.9 h
[2H]C([2H])([2H])Oc1cccc(-c2cc(F)c(NC(=O)C3=C(C(=O)NS(C)(=O)=O)CCC3)c(F)c2)c1 [Example 1/1]	<20		25000 to 50000	227 (≈ 103 µg/mL)					logD [2, 13]: 0.9
[2H]C([2H])([2H])Oc1cccc(-c2c(F)c(F)c(NC(=O)C3=C(C(=O)NS(C)(=O)=O)CCC3)c(F)c2F)c1 [Example 1/7]		< 100	< 10000		30.5	20	4.01	1.32	
COc1cccc(-c2c(F)c(F)c(NC(=O)C3=C(C(=O)NS(C)(=O)=O)CCC3)c(F)c2F)c1 [Example 1/13]		< 100			35.4	25.5	10.3	14.4	
NS(=O)(=O)NC(=O)C1=C(C(=O)Nc2c(F)c(F)c(-c3cccc(OC(F)(F)F)c3)c(F)c2F)CCC1 [Example 2, N^1-Sulfamoyl-N^2-(2,3,5,6-tetrafluoro-3′-(trifluoromethoxy)-[1,1′-biphenyl]-4-yl)cyclopent-1-ene-1,2-dicarboxamide]	72	< 100	10000 to 25000						
[2H]C([2H])([2H])Oc1cccc(-c2cc(F)c(NC(=O)C3=C(C(=O)NS(N)(=O)=O)CCC3)c(F)c2)c1 [Example 2/1]	22	< 100	> 50000	235 (≈ 107 µg/mL)					logD [2, 13]: 0.5; AUC ([5]; female mice): 8610 ng·h/mL; Cmax ([5]; female mice): 2280 ng/mL; AUC ([5]; male mice): 3070 ng·h/mL; Cmax ([5]; male mice): 1500 ng/mL; F ([5]; female mice): ♀ 144%; half-life ([5]; female): 2.4 h; F ([5]; male mice): ♂ 60%; half-life ([5]; male): 3.1 h
O=C(Nc1c(F)c(F)c(-c2cccc(OC(F)(F)F)c2)c(F)c1F)C1=C(c2nn[nH]n2)CCC1 [Example 3, N-(2,3,5,6-Tetrafluoro-3′-(trifluoromethoxy)-[1,1′-biphenyl]-4-yl)-2-(2H-tetrazol-5-yl)cyclopent-1-ene-1-carboxamide]	<20		< 10000	207 (≈ 101 µg/mL)					IC50 [4]: 100 to 1000 nM
[2H]C([2H])([2H])Oc1cccc(-c2cc(F)c(NC(=O)C3=C(C(=O)NOC)CCC3)c(F)c2)c1 [Example 4]	26		< 10000						recovery at 10 μM ([9]; A-B direction, read-out: recovery (A-B)): 60%; recovery at 10 μM ([9]; B-A direction, read-out: recovery (B-A)): 52%; Papp A→B at 10 μM ([9]; Caco-2, 10 μM, pH 7.4/7.4): 1.6 ×10⁻⁶ cm/s; Papp B→A at 10 μM ([9]; Caco-2, 10 μM, pH 7.4/7.4): 0.26 ×10⁻⁶ cm/s; AUC ([5]; female mice): 1210 ng·h/mL; Cmax ([5]; female mice): 690 ng/mL; AUC ([5]; male mice): 1780 ng·h/mL; Cmax ([5]; male mice): 1110 ng/mL; F ([5]; female mice): ♀ 87%; half-life ([5]; female): 1.3 h; F ([5]; male mice): ♂ 63%; half-life ([5]; male): 1.1 h; EC50 (human rhinovirus HRV-14): 2200 nM; CC50 [10]: > 25000 nM
[2H]C([2H])([2H])Oc1cccc(-c2cc(F)c(NC(=O)c3ccsc3C(=O)NOCCO)c(F)c2)c1 [Example 9/1]		< 100	< 1000		52.8	162	40.4	67.2	
CONC(=O)c1sccc1C(=O)Nc1c(F)cc(-c2cccc(OC)c2)cc1F [Example 9/9]		< 100			69.3	192	66.1	93.9	
COc1cccc(-c2ccc(NC(=O)C3=C(C(=O)O)CCC3)c(F)c2)c1 [vidofludimus, 2-((3-fluoro-3′-methoxy-[1,1′-biphenyl]-4-yl)carbamoyl)cyclopent-1-ene-1-carboxylic acid]									blood uric acid levels [11]: decrease; urine red blood cell count [11]: increase
